{"source": "patent US20080051449A1", "about": "“PREPARATION OF ATORVASTATIN CALCIUM FORM VI AND COMPOSITIONS THEREOF” (priority 2006, published 2008)", "format_in_all_cases": "physicochemical", "key": {"[1]": {"assay": "Particle size distribution by Malvern particle size analyzer", "conditions": "dispersant 0.7% dioctyl sodium sulfosuccinate in n-hexane", "source_text": "A particle size distribution of D50 as used herein is defined as the distribution where 50 volume percent of the particles are smaller than that size given. A particle size distribution of D10 as used herein is defined as the distribution where 10 volume percent of the particles are smaller than that size given. A particle size distribution of D90 as used herein is defined as the distribution where 90 volume percent of the particles are smaller than that size given. The D50 value is considered to be a “mean particle size.” Particle size can be determined using commercially available instrumentation, such as that sold by Malvern Instruments Ltd. of Malvern, Worcestershire, United Kingdom and using a laser diffraction principle.\nThe particle size distribution of atorvastatin calcium Form VI was determined using a Malvern® particle size analyzer, and 0.7% of dioctyl sodium sulfosuccinate in n-hexane was used as the dispersant."}, "[2]": {"assay": "Stability study at 40° C. and 75% relative humidity", "conditions": "40° C./75% RH", "source_text": "Stability packaging: The sample was packed in a clear polyethylene bag and flushed with nitrogen, then tied and placed in a black polyethylene bag along with silica gel and tied. Finally the black bag was placed in a triple laminated bag and sealed with a liner sealer."}, "[3]": {"assay": "Stability study during storage at 25° C. and 60% relative humidity", "conditions": "25° C./60% RH", "protocol": "Stability Study of Atorvastatin Calcium Crystalline Form VI (Example 3) During Storage at 25° C. and 60% Relative Humidity.\nStability packaging: same as Example 5."}, "[4]": {"assay": "Stability study under various stress conditions in an open container", "source_text": "Stability Study of Atorvastatin Calcium Crystalline Form VI (Example 3) Subject to Various Stress Conditions in an Open Container"}, "[5]": {"conditions": "Accelerated Stability (40° C. and 75% relative humidity) 24 hours"}, "[6]": {"conditions": "Compression (2000 kg/cm^2) for 1 hour"}, "[7]": {"conditions": "UV Photostability λ = 254 nm, 24 hours"}}}
{"substance": "[R—(R*,R*)]-2-(4-fluorophenyl)-β,δ-dihydroxy-5-(1-methylethyl)-3-phenyl-4[(phenyl amino) carbonyl]-IH-pyrrole-1-heptanoic acid, calcium salt (2:1) trihydrate [Atorvastatin calcium Form VI (Example 3)]", "values": [{"measurement": "Particle Size D10", "setting": "[1]", "value": 1.32, "unit": "μm"}, {"measurement": "Particle Size D50", "setting": "[1]", "value": 5.22, "unit": "μm"}, {"measurement": "Particle Size D90", "setting": "[1]", "value": 24.54, "unit": "μm"}, {"measurement": "Assay by HPLC", "setting": "[2]; 1 month", "value": 99.2, "unit": "% w/w"}, {"measurement": "Moisture Content", "setting": "[2]; 1 month", "value": 1.4, "unit": "% w/w"}, {"measurement": "Total Impurities by HPLC", "setting": "[2]; 1 month", "value": 0.14, "unit": "% w/w"}, {"measurement": "Assay by HPLC", "setting": "[2]; 3 months", "value": 99.2, "unit": "% w/w"}, {"measurement": "Moisture Content", "setting": "[2]; 3 months", "value": 1.6, "unit": "% w/w"}, {"measurement": "Total Impurities by HPLC", "setting": "[2]; 3 months", "value": 0.15, "unit": "% w/w"}, {"measurement": "Assay by HPLC", "setting": "[2]; 6 months", "value": 99.2, "unit": "% w/w"}, {"measurement": "Moisture Content", "setting": "[2]; 6 months", "value": 1.6, "unit": "% w/w"}, {"measurement": "Total Impurities by HPLC", "setting": "[2]; 6 months", "value": 0.24, "unit": "% w/w"}, {"measurement": "Assay by HPLC", "setting": "[2]; Initial", "value": 99.1, "unit": "% w/w"}, {"measurement": "Moisture Content", "setting": "[2]; Initial", "value": 1.4, "unit": "% w/w"}, {"measurement": "Total Impurities by HPLC", "setting": "[2]; Initial", "value": 0.18, "unit": "% w/w"}, {"measurement": "Assay by HPLC", "setting": "[3]; 1 month", "value": 99.1, "unit": "% w/w"}, {"measurement": "Moisture Content", "setting": "[3]; 1 month", "value": 1.5, "unit": "% w/w"}, {"measurement": "Total Impurities by HPLC", "setting": "[3]; 1 month", "value": 0.16, "unit": "% w/w"}, {"measurement": "Assay by HPLC", "setting": "[3]; 3 months", "value": 99.1, "unit": "% w/w"}, {"measurement": "Moisture Content", "setting": "[3]; 3 months", "value": 1.7, "unit": "% w/w"}, {"measurement": "Total Impurities by HPLC", "setting": "[3]; 3 months", "value": 0.14, "unit": "% w/w"}, {"measurement": "Assay by HPLC", "setting": "[3]; 6 months", "value": 99.3, "unit": "% w/w"}, {"measurement": "Moisture Content", "setting": "[3]; 6 months", "value": 1.5, "unit": "% w/w"}, {"measurement": "Total Impurities by HPLC", "setting": "[3]; 6 months", "value": 0.23, "unit": "% w/w"}, {"measurement": "Assay by HPLC", "setting": "[3]; Initial", "value": 99.1, "unit": "% w/w"}, {"measurement": "Moisture Content", "setting": "[3]; Initial", "value": 1.4, "unit": "% w/w"}, {"measurement": "Total Impurities by HPLC", "setting": "[3]; Initial", "value": 0.18, "unit": "% w/w"}, {"measurement": "Total Impurities", "setting": "[4]; [5]", "value": 0.29, "unit": "% w/w"}, {"measurement": "Water by KF", "setting": "[4]; [5]", "value": 1.85, "unit": "% w/w"}, {"measurement": "Total Impurities", "setting": "[4]; [6]", "value": 0.32, "unit": "% w/w"}, {"measurement": "Water by KF", "setting": "[4]; [6]", "value": 1.68, "unit": "% w/w"}, {"measurement": "Total Impurities", "setting": "[4]; Initial analysis", "value": 0.26, "unit": "% w/w"}, {"measurement": "Water by KF", "setting": "[4]; Initial analysis", "value": 1.60, "unit": "% w/w"}, {"measurement": "Total Impurities", "setting": "[4]; Thermal (90° C.) 24 hours", "value": 0.7, "unit": "% w/w"}, {"measurement": "Water by KF", "setting": "[4]; Thermal (90° C.) 24 hours", "value": 1.04, "unit": "% w/w"}, {"measurement": "Total Impurities", "setting": "[4]; [7]", "value": 0.27, "unit": "% w/w"}, {"measurement": "Water by KF", "setting": "[4]; [7]", "value": 1.54, "unit": "% w/w"}]}
